Series [1] is described as follows: Aqueous stability of peptide in McIlvaine's buffer. It counts as physicochemical. The method, then:
A typical procedure for measuring the stability of a peptide compound of the present invention is as follows, in which, to minimize microbial contamination and degradation, all equipment that is used to prepare peptide solutions is sterilized in an autoclave and all material transfers carried out in a Class II laminar flow cabinet. Approximately 20 ml of McIlvaine's citric acid-phosphate buffer solution at pH 3 or 7.6 containing 0.02% sodium azide is filtered into a 50 ml bottle using a sterile […] filter unit and a 20 ml syringe. Approximately 1.2 mg of peptide is accurately weighed in a capped vial. Using a sterile pipette tip, sufficient buffer solution is added to the peptide in the vial to give a peptide concentration of 0.1 mg/ml. The vial is capped and shaken to dissolve the peptide. Using a sterile pipette tip, aliquots of approximately 1 ml of the peptide solution are transferred to 10 HPLC vials, which are then capped. 5 vials are stored at -18 and 37° C. The area of the peptide peak for the solution is determined by HPLC using appropriate standards initially and after storage at -18 and 37° C. for 1, 2, 3 and 4 weeks, using a fresh vial at each time point with duplicate sample injections. The percentage of peptide remaining after storage at 37° C. at each time point is determined from the ratio of the area of the peptide peak at each time point to the initial area. […]

Another series addresses T1, HLA-DR4Dw4 (Homo sapiens, UniProt P01903+P01911, A100K/A169T/F76Y/I96L/K127E/L162R/M171V/N62H/P40V/Q125Y/R42H/S133A/S149N/S66Y/V115G/V209L/W38E).
T1 construct: made in house; host or cells: double-recombinant baculovirus in Sf21 insect cells (Test A), or the human JAH cell line (variant to Test A)
In words: Test A: purified HLA-DR peptide in vitro binding assay (or its variant). The procedure: Purified HLA-DR peptide in vitro binding assay. […]. At the end of the incubation period 100 μl of the incubate is transferred to Enzyme Linked ImmunoSorbant Assay (ELISA) plates (Nunc) previously coated with an anti-MHC antibody (L243-American Type Culture Collection (ATCC) HB55 as described in Lampson and Levy (1980) J. Immunol. 125, 293-299) at a concentration of 10 μg/ml for 1 hour at room temperature and blocked thereafter for 1 hour with 1% bovine serum albumin (BSA) in PBS and 0.05% Tween 20. […] The reaction is stopped by adding 2M sulphuric acid (10 μl per well) and the absorbance read at 450 nm to quantify the amount of peptide bound. The inhibitory activity of peptides is obtained by plotting absorbance against concentration. […]
To create the double-recombinant baculovirus, a cDNA encoding the β chain is cloned into the transfer vector pAcUW1 [Weyer, U; Knight, S & Possee, R D (1990) J. Gen. […] Double-recombinant viruses are detected by spotting insecT-cells, infected with randomly picked viruses from the transfection,onto membranes and reacting them with a monoclonal antibody e.g. L243 which specifically recognises the HLA-DR heterodimer. Binding of the antibody to Sf21 insecT-cells is detected using standard flow cytometry techniques, readily available in the literature. […]

Series [2] can be described thus: Degradation of peptide on in vitro release from an extruded polymer depot. It is filed as physicochemical. The following applies: in the form of a polymer depot formulation. The procedure: A solution of McIlvaine's citric acid-phosphate buffer solution at pH 7.6 containing 0.02% sodium azide, is filtered through a 0.22μ filter and stored at 4° C. Approximately 10 mg of extruded polymer depot containing peptide is placed in two small vials and 2 ml of the buffer solution added. The vials are then capped and stored in a water bath at 37° C. for a month. At suitable time points over a month, three 0.6 ml aliquots of release medium are removed from each vial and either analysed by HPLC or stored frozen in an HPLC vial at -18° C. prior to analysis by HPLC. 1.8 ml of the buffer solution is added to each vial containing the depot to replace the release medium that has been removed at each time point.
The average amount of intact peptide in the release medium at each time point is determined by HPLC using duplicate sample injections by comparing the area of the peptide peak in the release media with the area of the peptide peak from standard buffer solutions of peptide at known concentrations. The approximate average amount of peptide degradation products in the release media at each time point is determined by HPLC by comparing the area of additional new peaks in the release media with the area of the peptide peak from standard buffer solutions of peptide at known concentrations and assuming the extinction coefficient has not changed. […]

The nature of series [3]: Loss of peptide due to degradation on extrusion of polymer depot formulation. It counts as physicochemical. The following applies: in the form of a polymer depot formulation. The method, then:
Typical procedures for measuring the level of degradation of a peptide compound of the present invention are as follows:
About 20 mg of peptide is accurately weighed and sufficient polymer (50/50% molar poly(D,L-lactic acid/glycolic acid) copolymer of approximate weight average molecular weight 20 kD and approximate polydispersity of 1.7 as determined by size exclusion chromatography relative to polystyrene standards) added to produce an approximate 20% w/w mixture. This is dissolved in anhydride-free glacial acetic acid to produce an approximate 10% w/v solution. The solution is freeze dried and the resulting freeze dried product is stored under vacuum prior to use.
About 100 mg of freeze dried material is loaded into the barrel of a small laboratory extruder and the plunger pushed down to consolidate the sample. […]
Each standard is filtered through a 5 μm Millex PTFE filter and an aliquot of filtrate, together with aliquots of the solutions A, analysed by HPLC using duplicate sample injections. The peptide content of the extruded polymer depot formulation of peptide is calculated from the concentration of peptide in solutions A, which is determined by comparing the area of the peptide peak in solutions A with the area of the peptide peak from the standard solutions.

In the next series the target is HLA-DR3. The series is described as follows: Variant to Test A: peptide selectivity binding assay, HLA-DR3. Details: species or system human. The following applies: no significant binding. The method, then:
(§1) As a varient to test A, the ability of a peptide of the invention to bind to one or more HLA-DR molecules was assessed as follows:
(§2) The method used was a modification of that described by Gorga et al, 1987, J.Biol.Chem. 262, 16087-16094. Human HLA-DR antigens were purified from various cell lines by immunoaffinity chromatography. […] Protein content was determined by a Biorad protein assay and purity by SDS-PAGE electrophoresis.
(§3) 200 nM biotin-FHA307-320 in phosphate buffered saline (PBS) was incubated with either purified HLA-DR1, DR2, DR4Dw4, DR4Dw13 or DR4Dw14 (2-20 μg/ml) in V-well microtitre plates (Nunc) with or without inhibitor peptides in assay buffer (PBS, 0.01% NP40 (Sigma.)) For DR3 inhibition, 400 nM Biotin-Ahx-(D)Ala-Ala-Ala-Che-Ile-Ala-Ala-Ala-Thr-Leu-Lys-Ala-Ala-(D)Ala-OH (SEQ ID NO:25) was incubated with purified DR3 (20 μg/ml), and incubated as above. After 48 hours, the incubates were treated, and absorbance readings taken as described in Test A. The inhibitory activity of peptides, expressed as IC50 values, was calculating using Microcal Origin software on a PC.

A further series relates to HLA-DR1. In words: Variant to Test A: peptide selectivity binding assay, HLA-DR1. Further details: species or system human. The procedure:
as §1, §2, §3

A further series deals with HLA-DR2. In words: Variant to Test A: peptide selectivity binding assay, HLA-DR2. Further details: species or system human. The method, then:
as §1, §2, §3

Another series has as its system BALB/C mice. In words: Test C: peptide stimulated DTH (delayed type hypersensitivity) in BALB/C mice. It counts as in vivo. The following applies: osmotic mini-pump. The procedure: Peptide stimulated DTH (delayed type hypersensitivity) in BALB/C mice. […] Balb/c female mice (18-20 g), 5 per group, were immunised sub-cutaneously on the flank with 0.1 ml of an emulsion of ovalbumin (Sigma) (2 mg/ml in saline) mixed 1:1 (v/v) with complete Freunds adjurant (Sigma). Seven days later footpad thickness was detemined using a dual caliper micrometer followed by a challenge in one hind footpad with a 30 μl sub-plantar injection of 1% heat-aggregated ovalbumin protein in saline. Twenty-four hours after antigen challenge, footpads were measured and the DTH response calculated as the percentage increase in footpad thickness in the injected footpad compared to contralateral control. Inhibitors were adminstered by 3-day osmotic mini-pumps (Alzet) implanted 24 hours prior to antigen challenge at doses ranging from 10 mg/kg/day to 0.1 μg/kg/day. The degree of inhibition was calculated by substracting the value for swelling of inhibitor treated footpads from that of the vehicle dosed controls, dividing by the control value and multiplying by 100%.

For orientation: IC50 means the concentration needed to halve the response being measured. Read a high IC50 as lower potency. For the molecule `C[C@H](NC(=O)CN1CCCC[C@H](NC(=O)[C@H](C)NC(=O)[C@H](C)NC(=O)[C@H](CCCNC(=N)N)NC(=O)CCCCc2ccccc2)C1=O)C(=O)N[C@@H](C)C(=O)N[C@@H](C)C(=O)Nc1ccc(CC(N)=O)cc1` [Example 1, Phv-Arg-Ala-Ala-IIb-Ala-Ala-Ala-Papa-NH2], the aqueous stability result in series [1] (pH3) and in series [1] (pH7.6) was “good aqueous stability” each time. The “concentration showing significant binding to HLA-DR4Dw4” value at HLA-DR4Dw4 was not above 0.1 µM. Besides, the “degradation on release from depot formulation” value in series [2] is “minimal degradation on release”. For the same molecule, the “loss due to degradation on extrusion” value in series [3] is “minimal loss due to degradation on extrusion”. This molecule showed a concentration for half-maximal inhibition (IC50) on HLA-DR3 of more than 100 µM. In the series on HLA-DR1, the “binding to HLA-DR1” value is reported as “significant binding”. The “binding to HLA-DR2” value in the series with HLA-DR2 is recorded as “significant binding”. Moreover, the “dose at which active in Test C” value with BALB/C mice is less than 0.1 mg/kg/day.
